From article PMC7822816, “Halo-fluorescein for photodynamic bacteria inactivation in extremely acidic conditions” (Nature Communications, 2021)
Values joined by “and” are separate entries in the source; they are usually repeats but may differ in a detail not shown here. Identical values can stand only once.

Tests used:
C. albicans = test: Fresh food preservation (infected tomato model); set-up: species or system Candida albicans; details: 10 μM in pH 3.0 PBS, LED 35 mW/cm^2 10 min (620 nm Zn-tpp, 660 nm Ce 6)
Source text: Besides fruit juices, the potential of TIF for photo-assisted fresh food preservation was also investigated with tomato as the model (pH 3.0). […] Therefore, the food additive TIF is also promising for fresh food preservation.
Tomatoes were selected as the model for photo-assisted fresh food preservation. All the tomatoes were divided into six groups, and made a wound of ~7 cm^2 by hot water. […] Afterward, the tomatoes were stored at room temperature and then subjected to repeated irradiation at day 2. The total viable counts of bacteria on the infected tomatoes were measured in day 3.

[1] = system: C. albicans infection of oral mucosa; details: photosensitizer + light (510 nm TIF, 660 nm Ce 6 and Zn-tpp)
Source text: The extremely acidic environment was constructed through changing the pH of the mucosa and diluting PSs in pH 3.0 PBS buffer. […] During the investigations, the infected ICR mice were divided into six groups (six mice per group): blank, light, TIF, TIF + light, Ce 6 + light, and Zn-tpp + light. For comparison and better visualization of the infection, a normal group (no infection) was also included.
To construct the oral mucosal infection model, cotton balls immersed in solutions containing 10^8 CFU/mL of C. albicans were placed in the mouth of mice for 75 min. At day 1 and day 3, 50 μL pH 3.0 PBS and PSs (20 μM, diluted by pH 3.0 PBS) were added to oral mucosa, and treated with different lasers (510 nm for TIF, 660 nm for Ce 6 and Zn-tpp, 50 mW/cm^2) for 10 min.
To investigate the therapy effect, photographs, colonies, weights, and pathology index of mice were taken every other day. After day 3, one mouse in each group was sacrificed, and the tissues of oral mucosa were harvested for hematoxylin and eosin (H&E) staining. The pathology index was evaluated based on the standard given in Supplementary Table 10.

[2] = Photophysical characterization (absorption, fluorescence, phosphorescence, lifetime); format: physicochemical; details: for ΦFL: 5 μM in 0.5% (v/v) DMSO, diluted with 0.1 M NaOH; for λAbs / λPh / λem: 2% DMSO; for τfl: fluorescence lifetime, 5 μM in 0.5% DMSO, 0.1 M NaOH
Method: Section S6. Photophysical Characterizations
S6.1 Absorption, fluorescence, and phosphorescence spectra
Fluorescein and its derivatives were dissolved in DMSO to obtain 1 mM stock solutions.
The stock solutions were diluted with deionized water to 10 μM.
Supplementary Figure 20. The absorption (black), fluorescence (blue), and phosphorescence (red, slit 25 nm) spectra of FL.
Supplementary Figure 21. The absorption (black), fluorescence (blue), and phosphorescence (red, slit 25 nm) spectra of DCF.
S6.2 Fluorescence lifetime
Fluorescence decay samples was recorded with Fluorolog-3 (Horiba). The solution of samples were prepared to be 5 μM in 0.5% (v/v) DMSO, and diluted with 0.1M NaOH.
S6.5 Photophysical properties of the halogenated-fluorescein derivatives
Supplementary Table 4. Photophysical Properties of Halogenated-fluorescein derivatives. […]
a Measured in 2% DMSO; b Measured in 2% DMSO citric acid -disodium hydrogen phosphate buffer; c Measured in a mixed solvent of D 2O and CH3CN (VD2O:
VCH3CN = 1: 15); d The solution of samples were prepared to be 5 μM in 0.5% (v/v) DMSO, and diluted with 0.1 M NaOH.

[3] = Relative singlet oxygen quantum yield (1O2 phosphorescence, Rose Bengal standard); format: physicochemical; set-up: key: relative to Rose Bengal standard (ΦΔ = 0.75); details: for Singlet oxygen yield (ΦΔ): mixed solvent of D2O and CH3CN (1:15) (Supplementary Table 4); for singlet oxygen quantum yield (ΦΔ): pH = 10 media, relative, RB as the standard
Method: To permit the open-form structure of all fluorescein derivatives, all the measurements were carried out in pH = 10 media.
The singlet oxygen quantum yields (ΦΔ) of all fluorescein-based PSs were evaluated with Rose Bengal as the standard (ΦΔ = 0.75):1 ΦΔ=AsAbsorption/As(Emission)×ARB(Emission)/ARB(Absorption)×0.75 Here, the area of absorption (RB and PSs) was collected with an integrating sphere (λex = 510 nm), while the area of emission was obtained from the characterized 1270 nm ^1O2 phosphorescence emission. For collection of such emission, CH3CN and D2O mixed solvent (v (D2O): v (CH3CN) = 1:15, pH = 9.0, adjusted with 0.001 M NaOH) was used, since H2O can severely quench the singlet oxygen luminescence. For all the measurements, the concentrations of the PSs were set at 10 μM.
S6.3 Relative singlet oxygen quantum yield
The singlet O2 quantum yield of photosensitizers were measured by Fluolog-3 spectrofluorometer with an integration sphere (IS80, Labsphere) and NIR detector (Hamamatsu H-10330) in this work.
For better collection of the characterized singlet oxygen phosphorescence emission (1275 nm), CH3CN and D2O mixed solvent was used (H2O can severely quench the singlet oxygen luminescence). The 10 mM stock solutions in CH3CN and D2O mixed solvent (VCH3CN:VD2O = 15:1) were first prepared. The stock solutions were diluted to 10 μM, and the final volume was 2 mL. In addition, the CH3CN and D2O mixed solvent as blank was also prepared.
1. Turn on the instrument and the start software, the light source is xenon lamp.
2. From the experiment menu, selected spectra, emission. The 1O2 emission phosphorescence spectra are first measured.
3. The parameters setting are listed: a. Excitation wavelength: 510 nm

[4] = pH titration of halogenated fluorescein (pH0.5); format: physicochemical; details: for lowering of pH0.5 compared with fluorescein: difference to fluorescein (6.09)
Method: The pH0.5 values (the pH value when the open form reduce to the half of the maximum) of various fluorescein derivatives were determined experimentally through pH titration (Supplementary Figs. 6–16).
The pH of the solutions were adjusted through varying the ratios of citric acid and Na2HPO4 (pH 2.2–8.0), and further acidity was adjusted with concentrated HCl or 1 M NaOH. The absorption and fluorescence spectra of the resultant solutions were then collected.
Section S5. pH-dependent Properties of the Halogenated Fluoresceins.
S5.1 pH titration of halogenated fluorescein
Fluorescein derivatives (Supplementary Table 1) were dissolved in DMSO to obtain 1 mM stock solutions and then diluted with citric acid-Na2HPO4 buffer (100 mM) to 10
μM. The pH of the solutions were adjusted through varying the ratios of citric acid and Na2HPO4 (pH 2.2-8.0), and further acidity was adjusted with concentrated HCl or 1 M
NaOH. The absorption and fluorescence spectra of the resultant solutions were then

MRSA = details: dose 100 mg/L, 360 J/cm2; cited from earlier work
[5] = set-up: method as in PMID 10546544; details: Rose Bengal as the standard; cited from earlier work
L. plantarum = test: Photodynamic inhibition of L. plantarum (coating plate method); format: cell-based, Lactobacillus plantarum; details: 0.5 μM photosensitizer, irradiated 10 min, pH 2.5; 620 nm red LED for Zn-tpp and PC
E.coli = details: dose 0.5 μM, 20 min; cited from earlier work
[6] = 2% DMSO citric acid-disodium hydrogen phosphate buffer (Supplementary Table 4)
[7] = pH value when the open form reduces to half of the maximum, pH titration, 10 μM, citric acid–Na2HPO4 buffer

For `C=Cc1c(C)c2cc3nc(c(CC(=O)O)c4[nH]c(cc5nc(cc1[nH]2)C(C)=C5CC)c(C)c4C(=O)O)[C@@H](CCC(=O)O)[C@@H]3C` [Ce 6, reference compound], the “wound infection of tomatoes, with light” value (C. albicans) was “different magnitudes of wound infection” and the “H&E staining of tongue sections, with light” value [1] was “large amounts of inflammation infiltration”.
Molecule `O=C(O)c1ccccc1-c1c2ccc(=O)c(Br)c-2oc2c(Br)c(O)ccc12` [DBF, Dibromo-fluorescein] has a kdec [2] of 5.03e+08 s⁻¹, a knr [2] of 3.5e+08 s⁻¹ and a krad [2] of 1.52e+08 s⁻¹. It also gave a ΦFL [2] of 0.303, a λAbs [2] of 504 nm and a λPh [2] of 685 nm. The λem [2] was 531 nm, the τfl [2] was 1.99 ns and the “Singlet oxygen yield (ΦΔ)” value [3] was 0.26. The “singlet oxygen quantum yield (ΦΔ)” value [3] was 0.19, the pH0.5 [4, 6] was 4.63 and the pH0.5 [4, 7] was 4.63 and 4.52.
Work on `O=C(O)c1ccccc1-c1c2ccc(=O)c(I)c-2oc2c(I)c(O)ccc12` [DIF, Diiodo-fluorescein] yielded a kdec [2] of 1e+11 s⁻¹, a knr [2] of 9.99e+10 s⁻¹ and a krad [2] of 1e+08 s⁻¹. The ΦFL [2] was 0.001, the λAbs [2] was 527 nm and the λPh [2] was 699 nm. The λem [2] was 549 nm, the τfl [2] was 0.01 ns and the “singlet oxygen quantum yield (ΦΔ)” value [3] was 0.63. For the same molecule, the pH0.5 [4, 6] was 4.13 and the pH0.5 [4, 7] was 4.13.
For `CN(C)c1ccc2nc3ccc(=[N+](C)C)cc-3sc2c1` [Methylene Blue], the Inhibition ratio (MRSA) is listed as 4.7 log10.
`O=C(O)c1c(Cl)c(Cl)c(Cl)c(Cl)c1-c1c2cc(Cl)c(=O)c(Cl)c-2oc2c(Cl)c(O)c(Cl)cc12` [OCF, Octachloro-fluorescein] showed a kdec [2] of 2.31e+08 s⁻¹, a knr [2] of 9.3e+07 s⁻¹ and a krad [2] of 1.38e+08 s⁻¹. The ΦFL [2] was 0.597, the λAbs [2] was 537 nm and the λPh [2] was 676 nm. The λem [2] was 556 nm, the τfl [2] was 4.33 ns and the “Singlet oxygen yield (ΦΔ)” value [3] was 0.11. The “singlet oxygen quantum yield (ΦΔ)” value [3] was 0.11, the pH0.5 [4, 6] was 3.41 and the pH0.5 [4, 7] was 3.41.
Work on `O=C(O)c1c(Cl)c(Cl)c(Cl)c(Cl)c1-c1c2cc(Br)c(=O)c(Br)c-2oc2c(Br)c(O)c(Br)cc12` [PB, Tetrabromo-tetrachloro-fluorescein] yielded a kdec [2] of 8e+08 s⁻¹, a knr [2] of 6.64e+08 s⁻¹ and a krad [2] of 1.36e+08 s⁻¹. For the same molecule, the ΦFL [2] was 0.170, the λAbs [2] was 539 nm and the λPh [2] was 730 nm. For the same molecule, the λem [2] was 560 nm, the τfl [2] was 1.25 ns and the “singlet oxygen quantum yield (ΦΔ)” value [3] was 0.26. It also gave a pH0.5 [4, 6] of 3.45 and a pH0.5 [4, 7] of 3.45.
`O=C(O)c1c(Cl)c(Cl)c(Cl)c(Cl)c1-c1c2cc(I)c(=O)c(I)c-2oc2c(I)c(O)c(I)cc12` [RB, Tetraiodo-tetrachloro-fluorescein] gave a kdec [2] of 1e+11 s⁻¹, a knr [2] of 9.97e+10 s⁻¹ and a krad [2] of 3e+08 s⁻¹. For the same molecule, the ΦFL [2] was 0.003, the λAbs [2] was 550 nm and the λPh [2] was 732 nm. The λem [2] was 570 nm, the τfl [2] was 0.01 ns and the “singlet oxygen quantum yield (ΦΔ) of the standard” value [5] was 0.75. The “Singlet oxygen yield (ΦΔ)” value [3] was 0.75, the “singlet oxygen quantum yield (ΦΔ)” value [3] was 0.75 and the pH0.5 [4, 6] was 3.99. For the same molecule, the pH0.5 [4, 7] was 3.99.
`O=C(O)c1ccccc1-c1c2cc(Cl)c(=O)c(Cl)c-2oc2c(Cl)c(O)c(Cl)cc12` [TCF-1, Tetrachloro-fluorescein-1] gave a kdec [2] of 2.44e+08 s⁻¹, a knr [2] of 7.8e+07 s⁻¹ and a krad [2] of 1.66e+08 s⁻¹. For the same molecule, the ΦFL [2] was 0.680, the λAbs [2] was 515 nm and the λPh [2] was 655 nm. The λem [2] was 536 nm, the τfl [2] was 4.09 ns and the “Singlet oxygen yield (ΦΔ)” value [3] was 0.06. The “singlet oxygen quantum yield (ΦΔ)” value [3] was 0.06, the pH0.5 [4, 6] was 2.79 and the “lowering of pH0.5 compared with fluorescein” value [4] was 3.30 units. For the same molecule, the pH0.5 [4, 7] was 2.79.
Molecule `O=C(O)c1c(Cl)c(Cl)c(Cl)c(Cl)c1-c1c2ccc(=O)cc-2oc2cc(O)ccc12` [TCF-2, Tetrachloro-fluorescein-2] has a kdec [2] of 2.05e+08 s⁻¹, a knr [2] of 3e+07 s⁻¹ and a krad [2] of 1.75e+08 s⁻¹. The ΦFL [2] was 0.854, the λAbs [2] was 511 nm and the λPh [2] was 637 nm. The λem [2] was 531 nm, the τfl [2] was 4.87 ns and the “singlet oxygen quantum yield (ΦΔ)” value [3] was 0.05. The pH0.5 [4, 6] was 5.89, the “lowering of pH0.5 compared with fluorescein” value [4] was 0.16 units and the pH0.5 [4, 7] was 5.89 and 5.93.
With `C1=Cc2nc1c(-c1ccccc1)c1ccc([n-]1)c(-c1ccccc1)c1nc(c(-c3ccccc3)c3ccc([n-]3)c2-c2ccccc2)C=C1.[Zn+2]` [Zn-tpp, Zinc(II) tetraphenylporphyrin, reference compound] the “wound infection of tomatoes, with light” value (C. albicans) was “different magnitudes of wound infection”, the “H&E staining of tongue sections, with light” value [1] was “large amounts of inflammation infiltration” and the “antimicrobial activity (survival rate of L. plantarum)” value (L. plantarum) was “no obvious antimicrobial activity”.
Dichloro-fluorescein [DCF] showed a kdec [2] of 2.31e+08 s⁻¹, a knr [2] of 7.7e+07 s⁻¹ and a krad [2] of 1.54e+08 s⁻¹. It also gave a ΦFL [2] of 0.668, a λAbs [2] of 502 nm and a λPh [2] of 645 nm. The λem [2] was 529 nm, the τfl [2] was 4.33 ns and the “singlet oxygen quantum yield (ΦΔ)” value [3] was 0.04. It also gave a pH0.5 [4, 6] of 4.77 and a pH0.5 [4, 7] of 4.77.
With Fluorescein the kdec [2] was 2.18e+08 s⁻¹, the knr [2] was 3.1e+07 s⁻¹ and the krad [2] was 1.87e+08 s⁻¹. The ΦFL [2] was 0.858, the λAbs [2] was 491 nm and the λPh [2] was 638 nm. The λem [2] was 515 nm, the τfl [2] was 4.58 ns and the “singlet oxygen quantum yield (ΦΔ)” value [3] was 0.01. The pH0.5 [4, 6] was 6.09 and the pH0.5 [4, 7] was 6.09.
In the case of [Ru(bpy)2(dppn)]2+, the Inhibition ratio (E.coli) is listed as 5.4 log10.
